Source: US8846947B2, “Benzimidazoles and related analogs as sirtuin modulators” (GlaxoSmithKline LLC, priority 2008, dated 2014)
Where two headings read alike, the source gives them in different places.

Biological target: T1, SIRT1 (Homo sapiens, UniProt Q96EB6)
T1 sequence (Q96EB6 1-747): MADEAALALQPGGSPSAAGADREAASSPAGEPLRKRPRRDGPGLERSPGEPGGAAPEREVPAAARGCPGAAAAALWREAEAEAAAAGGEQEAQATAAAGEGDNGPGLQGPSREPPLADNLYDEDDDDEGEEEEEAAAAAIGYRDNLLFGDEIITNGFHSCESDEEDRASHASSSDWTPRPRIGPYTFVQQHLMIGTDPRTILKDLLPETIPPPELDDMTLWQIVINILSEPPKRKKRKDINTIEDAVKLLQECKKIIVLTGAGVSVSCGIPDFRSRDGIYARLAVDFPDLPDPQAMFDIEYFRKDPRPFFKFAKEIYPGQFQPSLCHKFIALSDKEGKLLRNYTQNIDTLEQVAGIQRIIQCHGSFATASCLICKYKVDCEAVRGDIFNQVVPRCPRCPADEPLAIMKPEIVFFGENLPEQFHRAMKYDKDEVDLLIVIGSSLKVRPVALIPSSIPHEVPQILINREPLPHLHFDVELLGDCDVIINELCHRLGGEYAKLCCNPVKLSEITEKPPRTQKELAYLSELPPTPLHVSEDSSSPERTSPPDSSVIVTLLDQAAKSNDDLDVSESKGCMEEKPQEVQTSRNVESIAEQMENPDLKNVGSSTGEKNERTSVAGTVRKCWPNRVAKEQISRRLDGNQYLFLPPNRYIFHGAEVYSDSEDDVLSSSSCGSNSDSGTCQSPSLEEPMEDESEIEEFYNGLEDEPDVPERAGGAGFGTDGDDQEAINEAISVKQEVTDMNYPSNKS
Experiment: Mass spectrometry based SIRT1 deacetylase activation assay (acetylated p53-derived peptide substrate)
Type: biochemical

[1] = 0.5 μM peptide substrate, 120 μM βNAD+, 10 nM SIRT1, 25 min at 25° C.
[2] = 0.5 μM peptide substrate, 120 μM βNAD+, 10 nM SIRT1, 25 min at 25° C., read-out: EC1.5

Row | Structure (SMILES) | EC1.5 | Fold Act. (percent maximum fold activation) | Fold Act. (percent maximum fold activation) [1] | EC1.5 [2] [nM]
1 | Cc1nc(-c2ccccc2)c(-c2nc3c(C(=O)Nc4ccccn4)cccc3[nH]2)s1 [Compound 369] | A (EC1.5<1.0 uM) | A (Fold activation >200%) | – | –
2 | Cc1nc(-c2ccccc2)c(-c2nc3c(C(=O)Nc4cccnc4)cccc3[nH]2)s1 [Compound 370] | A (EC1.5<1.0 uM) | A (Fold activation >200%) | – | –
3 | CN1CCOc2cc(-c3nc4c(C(=O)Nc5nccs5)cccc4[nH]3)cnc21 [Compound 371] | A (EC1.5<1.0 uM) | A (Fold activation >200%) | – | –
4 | CN1CCOc2cc(-c3nc4c(C(=O)Nc5cccnc5)cccc4[nH]3)cnc21 [Compound 372] | A (EC1.5<1.0 uM) | A (Fold activation >200%) | – | –
5 | O=C(Nc1cccnc1)c1cccc2[nH]c(-c3ccnc(N4CCCCC4)c3)nc12 [Compound 373] | B (EC1.5 1-25 uM) | A (Fold activation >200%) | – | –
6 | O=C(NC1CCOC1=O)c1cccc2[nH]c(-c3ccc(F)cc3C(F)(F)F)nc12 (stereo not drawn) [Compound 374] | C (EC1.5 >25 uM) | B (Fold Activation <200%) | – | –
7 | Cc1cc(NC(=O)c2cccc3[nH]c(-c4ccc(F)cc4C(F)(F)F)nc23)n(C)n1 [Compound 375] | A (EC1.5<1.0 uM) | A (Fold activation >200%) | – | –
8 | Cc1cnc(NC(=O)c2cccc3[nH]c(-c4cc(F)ccc4C(F)(F)F)nc23)s1 [Compound 376] | A (EC1.5<1.0 uM) | A (Fold activation >200%) | – | –
9 | Cc1nc(NC(=O)c2cccc3[nH]c(-c4cc(F)ccc4C(F)(F)F)nc23)sc1C [Compound 377] | A (EC1.5<1.0 uM) | A (Fold activation >200%) | – | –
10 | O=C(NC1CCOC1=O)c1cccc2[nH]c(-c3cc(F)ccc3C(F)(F)F)nc12 (stereo not drawn) [Compound 378] | C (EC1.5 >25 uM) | B (Fold Activation <200%) | – | –
11 | Cc1cc(C)nc(NC(=O)c2cccc3[nH]c(-c4cc(F)ccc4C(F)(F)F)nc23)c1 [Compound 379] | A (EC1.5<1.0 uM) | A (Fold activation >200%) | – | –
12 | Cc1cc(NC(=O)c2cccc3[nH]c(-c4cc(F)ccc4C(F)(F)F)nc23)n(C)n1 [Compound 380] | A (EC1.5<1.0 uM) | A (Fold activation >200%) | – | –
13 | Cc1cnc(NC(=O)c2cccc3[nH]c(-c4ccnn4-c4ccccc4)nc23)s1 [Compound 381] | A (EC1.5<1.0 uM) | A (Fold activation >200%) | – | –
14 | Cc1nc(NC(=O)c2cccc3[nH]c(-c4cccc(N5CCOCC5)c4)nc23)sc1C [Compound 382] | A (EC1.5<1.0 uM) | A (Fold activation >200%) | – | –
15 | CC1(C)Cc2cccc(-c3nc4c(C(=O)Nc5nccs5)cccc4[nH]3)c2O1 [Compound 383] | B (EC1.5 1-25 uM) | B (Fold Activation <200%) | – | –
16 | O=C(Nc1cccc2[nH]c(-c3cc(F)ccc3C(F)(F)F)nc12)c1cscn1 [Compound 384] | B (EC1.5 1-25 uM) | A (Fold activation >200%) | – | –
17 | O=C(Nc1cccc2[nH]c(-c3cc(F)ccc3C(F)(F)F)nc12)c1ccccn1 [Compound 385] | B (EC1.5 1-25 uM) | A (Fold activation >200%) | – | –
18 | O=C(Nc1cccc2[nH]c(-c3cc(F)ccc3C(F)(F)F)nc12)c1cccnc1 [Compound 386] | B (EC1.5 1-25 uM) | A (Fold activation >200%) | – | –
19 | O=C(Nc1cccc2[nH]c(-c3cc(F)ccc3C(F)(F)F)nc12)c1cnccn1 [Compound 387] | B (EC1.5 1-25 uM) | A (Fold activation >200%) | – | –
20 | O=C(Nc1cccc2[nH]c(-c3cccc(N4CCOCC4)c3)nc12)c1cnccn1 [Compound 388] | B (EC1.5 1-25 uM) | A (Fold activation >200%) | – | –
21 | O=C(Nc1cccnc1)c1cccc2[nH]c(-c3cccc(N4CCOCC4)n3)nc12 [Compound 389] | B (EC1.5 1-25 uM) | A (Fold activation >200%) | – | –
22 | O=C(Nc1cccnc1)c1cccc2[nH]c(-c3cccc(N4CCCCC4)n3)nc12 [Compound 390] | B (EC1.5 1-25 uM) | B (Fold Activation <200%) | – | –
23 | O=C(Nc1cccc2[nH]c(-c3cccc(N4CCOCC4)c3)nc12)c1cscn1 [Compound 391] | B (EC1.5 1-25 uM) | A (Fold activation >200%) | – | –

Row | Structure (SMILES) | EC1.5 | Fold Act. (percent maximum fold activation) | Fold Act. (percent maximum fold activation) [1] | EC1.5 [2] [nM]
24 | O=C(Nc1cccc2[nH]c(-c3ccnn3-c3ccccc3)nc12)c1cscn1 [Compound 392] | B (EC1.5 1-25 uM) | A (Fold activation >200%) | – | –
25 | Cc1nc(NC(=O)c2cccc3[nH]c(-c4ccc(Cl)cc4C(F)(F)F)nc23)sc1C [Compound 393] | A (EC1.5<1.0 uM) | A (Fold activation >200%) | – | –
26 | Cc1cc(C)nc(NC(=O)c2cccc3[nH]c(-c4ccc(Cl)cc4C(F)(F)F)nc23)c1 [Compound 394] | A (EC1.5<1.0 uM) | A (Fold activation >200%) | – | –
27 | Cc1nc(NC(=O)c2cccc3[nH]c(-c4ccnn4-c4ccccc4)nc23)sc1C [Compound 395] | A (EC1.5<1.0 uM) | A (Fold activation >200%) | – | –
28 | Cc1cnc(NC(=O)c2cccc3[nH]c(-c4cccc(N5CCOCC5)c4)nc23)s1 [Compound 396] | A (EC1.5<1.0 uM) | A (Fold activation >200%) | – | –
29 | O=C(NC1CCOC1=O)c1cccc2[nH]c(-c3cccc(N4CCOCC4)c3)nc12 (stereo not drawn) [Compound 397] | B (EC1.5 1-25 uM) | A (Fold activation >200%) | – | –
30 | Cc1cc(C)nc(NC(=O)c2cccc3[nH]c(-c4cccc(N5CCOCC5)c4)nc23)c1 [Compound 398] | – | – | A (Fold activation >200%) | < 1000
31 | Cc1cc(NC(=O)c2cccc3[nH]c(-c4cccc(N5CCOCC5)c4)nc23)n(C)n1 [Compound 399] | – | – | A (Fold activation >200%) | < 1000
32 | O=C(Nc1nccs1)c1cccc2[nH]c(-c3cn4ccsc4n3)nc12 [Compound 400] | – | – | A (Fold activation >200%) | < 1000
33 | CC1(C)Cc2cccc(-c3nc4c(C(=O)Nc5cccnc5)cccc4[nH]3)c2O1 [Compound 401] | – | – | A (Fold activation >200%) | 1000 to 25000
34 | CS(=O)(=O)c1cccc(-c2nc3c(C(=O)Nc4nccs4)cccc3[nH]2)c1 [Compound 402] | – | – | A (Fold activation >200%) | < 1000
35 | CS(=O)(=O)c1cccc(-c2nc3c(C(=O)Nc4ccccn4)cccc3[nH]2)c1 [Compound 403] | – | – | A (Fold activation >200%) | 1000 to 25000
36 | CS(=O)(=O)c1cccc(-c2nc3c(C(=O)Nc4cccnc4)cccc3[nH]2)c1 [Compound 404] | – | – | A (Fold activation >200%) | < 1000
37 | CS(=O)(=O)c1ccc(-c2nc3c(C(=O)Nc4nccs4)cccc3[nH]2)cc1 [Compound 405] | – | – | B (Fold Activation <200%) | 1000 to 25000
38 | CS(=O)(=O)c1ccc(-c2nc3c(C(=O)Nc4ccccn4)cccc3[nH]2)cc1 [Compound 406] | – | – | A (Fold activation >200%) | 1000 to 25000
39 | CS(=O)(=O)c1ccc(-c2nc3c(C(=O)Nc4cccnc4)cccc3[nH]2)cc1 [Compound 407] | – | – | B (Fold Activation <200%) | > 25000
40 | Cc1nc(-c2ccccc2)sc1-c1nc2c(C(=O)Nc3nccs3)cccc2[nH]1 [Compound 408] | – | – | A (Fold activation >200%) | < 1000
41 | Cc1nc(-c2ccccc2)sc1-c1nc2c(C(=O)Nc3ccccn3)cccc2[nH]1 [Compound 409] | – | – | A (Fold activation >200%) | < 1000
42 | Cc1nc(-c2ccccc2)sc1-c1nc2c(C(=O)Nc3cccnc3)cccc2[nH]1 [Compound 410] | – | – | B (Fold Activation <200%) | < 1000
43 | Cc1nc(N2CCOCC2)sc1-c1nc2c(C(=O)Nc3nccs3)cccc2[nH]1 [Compound 411] | – | – | A (Fold activation >200%) | < 1000
44 | Cc1nc(N2CCOCC2)sc1-c1nc2c(C(=O)Nc3ccccn3)cccc2[nH]1 [Compound 412] | – | – | A (Fold activation >200%) | < 1000
45 | Cc1nc(N2CCOCC2)sc1-c1nc2c(C(=O)Nc3cccnc3)cccc2[nH]1 [Compound 413] | – | – | A (Fold activation >200%) | < 1000
